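Five concentrations, 48 hours, 96-well plates. Abbreviation: GI50, concentration required for 50% inhibition of growth.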 Activity calls are given as the source filed them. Cut-off read from the data, not from the text of the source: active = GI50 up to about 1.1 µM and inactive = higher.
Legend:
Experiment in all cases: inhibition of tumour cell growth, NCI panel, 48 h
A549 = system: A549
CCRF-CEM = system: CCRF-CEM
HL-60 = system: HL-60
HOP-92 = system: HOP-92
HT-29 = system: HT-29
LOX IMVI = system: LOX IMVI
MOLT-4 = system: MOLT-4
NCI-H460 = system: NCI-H460
OVCAR-5 = system: OVCAR-5
RXF 393 = system: RXF 393
SF-295 = system: SF-295
SN12C = system: SN12C
TK-10 = system: TK-10
UACC-62 = system: UACC-62
EKVX = system: EKVX
SK-MEL-2 = system: SK-MEL-2
HCT-15 = system: HCT-15

Structure (SMILES) | GI50 (A549) | GI50 (CCRF-CEM) | GI50 (HL-60) | GI50 (HOP-92) | GI50 (HT-29) | GI50 (LOX IMVI) | GI50 (MOLT-4) | GI50 (NCI-H460) | GI50 (OVCAR-5) | GI50 (RXF 393) | GI50 (SF-295) | GI50 (SN12C) | GI50 (TK-10) | GI50 (UACC-62) | GI50 (EKVX) | GI50 (SK-MEL-2) | GI50 (HCT-15) [µM]
CCOC(=O)c1cc2c(cn1)[nH]c1cccc(N)c12 | > 100 µM (inactive) | > 100 µM (inactive) | 14.6 µM (inactive) | > 100 µM (inactive) | > 100 µM (inactive) | > 100 µM (inactive) | 61.5 µM (inactive) | > 100 µM (inactive) | > 100 µM (inactive) | > 100 µM (inactive) | > 100 µM (inactive) | > 100 µM (inactive) | > 100 µM (inactive) | > 100 µM (inactive) |  |  | 
CC(C)(C)C(=O)Cc1cc2c(cc1C(=O)O)S(=O)(=O)NC(C(C)(C)C)=C2 | > 100 µM (inactive) | > 100 µM (inactive) | > 100 µM (inactive) | > 100 µM (inactive) | > 100 µM (inactive) |  | > 100 µM (inactive) | > 100 µM (inactive) | > 100 µM (inactive) |  | > 100 µM (inactive) | > 100 µM (inactive) | > 100 µM (inactive) | > 100 µM (inactive) | > 100 µM (inactive) | > 100 µM (inactive) | 
COc1ccc(Cc2nccc3cc(OC)c(OC)cc23)cc1 | > 100 µM (inactive) | 65.6 µM (inactive) |  |  | 67.9 µM (inactive) |  | 39.4 µM (inactive) | 90.6 µM (inactive) | 40.4 µM (inactive) |  | 32.4 µM (inactive) | 36.9 µM (inactive) | > 100 µM (inactive) | 42.2 µM (inactive) | > 100 µM (inactive) | > 100 µM (inactive) | 57.3
Nc1ccn(CCOC(c2ccccc2)P(=O)(O)O)c(=O)n1 (centres undefined) | > 100 µM (inactive) | > 100 µM (inactive) | > 100 µM (inactive) |  | > 100 µM (inactive) | > 100 µM (inactive) | > 100 µM (inactive) | > 100 µM (inactive) | > 100 µM (inactive) | > 100 µM (inactive) | > 100 µM (inactive) | > 100 µM (inactive) | > 100 µM (inactive) | > 100 µM (inactive) | > 100 µM (inactive) | > 100 µM (inactive) | > 100
C=CCN(N=O)C(=O)NCCCC(NC(C)=O)C(=O)NCc1ccccc1 (centres undefined) | > 100 µM (inactive) | > 100 µM (inactive) | > 100 µM (inactive) | 61.5 µM (inactive) | > 100 µM (inactive) | > 100 µM (inactive) | > 100 µM (inactive) | > 100 µM (inactive) | > 100 µM (inactive) | > 100 µM (inactive) | > 100 µM (inactive) | > 100 µM (inactive) | > 100 µM (inactive) | > 100 µM (inactive) | > 100 µM (inactive) | > 100 µM (inactive) | > 100
NC(=O)c1csc(C2OC(COP(=O)(O)CP(=O)(O)OCC3OC(n4cnc5c(N)ncnc54)C(O)C3O)C(O)C2O)n1 (centres undefined) | > 100 µM (inactive) | > 100 µM (inactive) | > 100 µM (inactive) | > 100 µM (inactive) | 87.7 µM (inactive) | 97.1 µM (inactive) | > 100 µM (inactive) | > 100 µM (inactive) | > 100 µM (inactive) |  | 53.7 µM (inactive) | > 100 µM (inactive) | > 100 µM (inactive) | > 100 µM (inactive) | > 100 µM (inactive) | > 100 µM (inactive) | 78.3
Cc1cccc2c(O)cc(=O)oc12 | > 100 µM (inactive) | > 100 µM (inactive) | > 100 µM (inactive) |  | > 100 µM (inactive) | > 100 µM (inactive) | > 100 µM (inactive) | > 100 µM (inactive) | > 100 µM (inactive) | > 100 µM (inactive) | > 100 µM (inactive) | > 100 µM (inactive) | > 100 µM (inactive) | > 100 µM (inactive) | > 100 µM (inactive) |  | 
CCCCCCCCCCCCCCCC[N+](C)(C)Cc1ccc(C[N+](C)(C)CCCCCCCCCCCCCCCC)cc1 | 2.09 µM (inactive) | 1.46 µM (inactive) | 2.3 µM (inactive) |  | 2.28 µM (inactive) | 2.74 µM (inactive) | 1.78 µM (inactive) | 2.51 µM (inactive) | 1.91 µM (inactive) | 0.923 µM (active) | 1.74 µM (inactive) | 1.95 µM (inactive) | 17.8 µM (inactive) | 4.13 µM (inactive) | 3 µM (inactive) | 2.04 µM (inactive) | 3.66
CCn1c(=O)nc2n(-c3ccccc3)c3ccccc3nc-2c1=O | 17.2 µM (inactive) | 21.1 µM (inactive) | 10.7 µM (inactive) | 18.3 µM (inactive) |  |  | 17.3 µM (inactive) | 13.3 µM (inactive) | 29.3 µM (inactive) |  | 24.2 µM (inactive) | 20.6 µM (inactive) | > 100 µM (inactive) | 12.7 µM (inactive) | 43.7 µM (inactive) | 25 µM (inactive) | 15.7

Source: ChEMBL document CHEMBL1201862, “PubChem BioAssay data set” (2004)
